What follows are molecules tested on 817829-284-R-J1-PDC complex spheroids, viability (assay: Anticancer human tumor 817829-284-R-J1-PDC patient-derived colon adenocarcinoma cell line growth inhibition [GQUAD]). Conditions: curve of first compound; second compound 10 µM.
Method in brief: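 Viability of tumor cells grown as complex spheroids with endothelial and stromal cells, exposed to drug combinations. Top concentration at or near clinical Cmax (else 10 microM), diluted in half-log increments.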
Molecule `C=CCn1c(=O)c2cnc(Nc3ccc(N4CCN(C)CC4)cc3)nc2n1-c1cccc(C(C)(C)O)n1` + Cc1cnc(CNC(=O)c2c(=O)c3ccc(N4CCCN(C)CC4)nc3n3c2sc2ccccc23)cn1 has an IC50 of less than 31.6 nM.
In the case of `CC(C)(O)C1CCC(Nc2ccc3ncc(-c4cccc(C(F)(F)F)c4)n3n2)CC1` (configuration not stated) + Cc1cnc(CNC(=O)c2c(=O)c3ccc(N4CCCN(C)CC4)nc3n3c2sc2ccccc23)cn1, the IC50 is reported as less than 31.6 nM.
`CCCS(=O)(=O)Nc1ccc(F)c(C(=O)c2c[nH]c3ncc(-c4ccc(Cl)cc4)cc23)c1F` + Cc1cnc(CNC(=O)c2c(=O)c3ccc(N4CCCN(C)CC4)nc3n3c2sc2ccccc23)cn1 gave an IC50 of less than 31.6 nM.
With `Cc1[nH]c2ccccc2c1CCNCc1ccc(/C=C/C(=O)NO)cc1` + Cc1cnc(CNC(=O)c2c(=O)c3ccc(N4CCCN(C)CC4)nc3n3c2sc2ccccc23)cn1 the IC50 was less than 0.999 nM.
`O=C(NO)c1cnc(N2CCN(S(=O)(=O)c3ccc4ccccc4c3)CC2)nc1` + Cc1cnc(CNC(=O)c2c(=O)c3ccc(N4CCCN(C)CC4)nc3n3c2sc2ccccc23)cn1 showed an IC50 of less than 31.6 nM.

Same assay, conditions: second compound 0.0316 µM; first compound 0.000999 µM; stronger effect = lower value
`Cc1[nH]c2ccccc2c1CCNCc1ccc(/C=C/C(=O)NO)cc1` + Cc1cnc(CNC(=O)c2c(=O)c3ccc(N4CCCN(C)CC4)nc3n3c2sc2ccccc23)cn1 was tested, and the viability, T/C was 83.2%.

Same assay, conditions: second compound 0.0316 µM; first compound 0.00316 µM; stronger effect = lower value
Work on `Cc1[nH]c2ccccc2c1CCNCc1ccc(/C=C/C(=O)NO)cc1` + Cc1cnc(CNC(=O)c2c(=O)c3ccc(N4CCCN(C)CC4)nc3n3c2sc2ccccc23)cn1 yielded a viability, T/C of 67.1%.

Same assay, conditions: second compound 0.0316 µM; first compound 0.00999 µM; stronger effect = lower value
`Cc1[nH]c2ccccc2c1CCNCc1ccc(/C=C/C(=O)NO)cc1` + Cc1cnc(CNC(=O)c2c(=O)c3ccc(N4CCCN(C)CC4)nc3n3c2sc2ccccc23)cn1 was tested, and the viability, T/C was 44.2%.

Same assay, conditions: second compound 0.0316 µM; first compound 0.0316 µM; stronger effect = lower value
Work on `C#Cc1c(F)ccc2cc(O)cc(-c3ncc4c(N5CC6CCC(C5)N6)nc(OCC56CCCN5CC(F)C6)nc4c3F)c12` (configuration not stated) + Cc1cnc(CNC(=O)c2c(=O)c3ccc(N4CCCN(C)CC4)nc3n3c2sc2ccccc23)cn1 yielded a viability, T/C of 82.9%.
In the case of `C=CCn1c(=O)c2cnc(Nc3ccc(N4CCN(C)CC4)cc3)nc2n1-c1cccc(C(C)(C)O)n1` + Cc1cnc(CNC(=O)c2c(=O)c3ccc(N4CCCN(C)CC4)nc3n3c2sc2ccccc23)cn1, the viability, T/C is reported as 61.2%.
Molecule `CC(C)(O)C1CCC(Nc2ccc3ncc(-c4cccc(C(F)(F)F)c4)n3n2)CC1` (configuration not stated) + Cc1cnc(CNC(=O)c2c(=O)c3ccc(N4CCCN(C)CC4)nc3n3c2sc2ccccc23)cn1 has a viability, T/C of 63.1%.
`CCCS(=O)(=O)Nc1ccc(F)c(C(=O)c2c[nH]c3ncc(-c4ccc(Cl)cc4)cc23)c1F` + Cc1cnc(CNC(=O)c2c(=O)c3ccc(N4CCCN(C)CC4)nc3n3c2sc2ccccc23)cn1 gave a viability, T/C of 57.4%.
Work on `Cc1[nH]c2ccccc2c1CCNCc1ccc(/C=C/C(=O)NO)cc1` + Cc1cnc(CNC(=O)c2c(=O)c3ccc(N4CCCN(C)CC4)nc3n3c2sc2ccccc23)cn1 yielded a viability, T/C of 17.7%.
`O=C(NO)c1cnc(N2CCN(S(=O)(=O)c3ccc4ccccc4c3)CC2)nc1` + Cc1cnc(CNC(=O)c2c(=O)c3ccc(N4CCCN(C)CC4)nc3n3c2sc2ccccc23)cn1 showed a viability, T/C of 77.5%.

Same assay, conditions: second compound 0.0316 µM; first compound 0.0999 µM; stronger effect = lower value
`Cc1[nH]c2ccccc2c1CCNCc1ccc(/C=C/C(=O)NO)cc1` + Cc1cnc(CNC(=O)c2c(=O)c3ccc(N4CCCN(C)CC4)nc3n3c2sc2ccccc23)cn1 gave a viability, T/C of 5.1%.

Same assay, conditions: second compound 0.0316 µM; first compound 0.1 µM; stronger effect = lower value
For `C#Cc1c(F)ccc2cc(O)cc(-c3ncc4c(N5CC6CCC(C5)N6)nc(OCC56CCCN5CC(F)C6)nc4c3F)c12` (configuration not stated) + Cc1cnc(CNC(=O)c2c(=O)c3ccc(N4CCCN(C)CC4)nc3n3c2sc2ccccc23)cn1, the viability, T/C was 72.5%.
For `C=CCn1c(=O)c2cnc(Nc3ccc(N4CCN(C)CC4)cc3)nc2n1-c1cccc(C(C)(C)O)n1` + Cc1cnc(CNC(=O)c2c(=O)c3ccc(N4CCCN(C)CC4)nc3n3c2sc2ccccc23)cn1, the viability, T/C was 35.9%.
For `CC(C)(O)C1CCC(Nc2ccc3ncc(-c4cccc(C(F)(F)F)c4)n3n2)CC1` (configuration not stated) + Cc1cnc(CNC(=O)c2c(=O)c3ccc(N4CCCN(C)CC4)nc3n3c2sc2ccccc23)cn1, the viability, T/C was 53.3%.
`CCCS(=O)(=O)Nc1ccc(F)c(C(=O)c2c[nH]c3ncc(-c4ccc(Cl)cc4)cc23)c1F` + Cc1cnc(CNC(=O)c2c(=O)c3ccc(N4CCCN(C)CC4)nc3n3c2sc2ccccc23)cn1 gave a viability, T/C of 33.9%.
`O=C(NO)c1cnc(N2CCN(S(=O)(=O)c3ccc4ccccc4c3)CC2)nc1` + Cc1cnc(CNC(=O)c2c(=O)c3ccc(N4CCCN(C)CC4)nc3n3c2sc2ccccc23)cn1 gave a viability, T/C of 16.4%.

Same assay, conditions: second compound 0.0316 µM; first compound 0.316 µM; stronger effect = lower value
Molecule `C#Cc1c(F)ccc2cc(O)cc(-c3ncc4c(N5CC6CCC(C5)N6)nc(OCC56CCCN5CC(F)C6)nc4c3F)c12` (configuration not stated) + Cc1cnc(CNC(=O)c2c(=O)c3ccc(N4CCCN(C)CC4)nc3n3c2sc2ccccc23)cn1 has a viability, T/C of 84.7%.
For `C=CCn1c(=O)c2cnc(Nc3ccc(N4CCN(C)CC4)cc3)nc2n1-c1cccc(C(C)(C)O)n1` + Cc1cnc(CNC(=O)c2c(=O)c3ccc(N4CCCN(C)CC4)nc3n3c2sc2ccccc23)cn1, the viability, T/C was 17.1%.
For `CC(C)(O)C1CCC(Nc2ccc3ncc(-c4cccc(C(F)(F)F)c4)n3n2)CC1` (configuration not stated) + Cc1cnc(CNC(=O)c2c(=O)c3ccc(N4CCCN(C)CC4)nc3n3c2sc2ccccc23)cn1, the viability, T/C was 76.1%.
`CCCS(=O)(=O)Nc1ccc(F)c(C(=O)c2c[nH]c3ncc(-c4ccc(Cl)cc4)cc23)c1F` + Cc1cnc(CNC(=O)c2c(=O)c3ccc(N4CCCN(C)CC4)nc3n3c2sc2ccccc23)cn1 was tested, and the viability, T/C was 34.4%.
In the case of `Cc1[nH]c2ccccc2c1CCNCc1ccc(/C=C/C(=O)NO)cc1` + Cc1cnc(CNC(=O)c2c(=O)c3ccc(N4CCCN(C)CC4)nc3n3c2sc2ccccc23)cn1, the viability, T/C is reported as 0.06%.
`O=C(NO)c1cnc(N2CCN(S(=O)(=O)c3ccc4ccccc4c3)CC2)nc1` + Cc1cnc(CNC(=O)c2c(=O)c3ccc(N4CCCN(C)CC4)nc3n3c2sc2ccccc23)cn1 gave a viability, T/C of 5.04%.

Same assay, conditions: second compound 0.0316 µM; first compound 1 µM; stronger effect = lower value
In the case of `C#Cc1c(F)ccc2cc(O)cc(-c3ncc4c(N5CC6CCC(C5)N6)nc(OCC56CCCN5CC(F)C6)nc4c3F)c12` (configuration not stated) + Cc1cnc(CNC(=O)c2c(=O)c3ccc(N4CCCN(C)CC4)nc3n3c2sc2ccccc23)cn1, the viability, T/C is reported as 61%.
Molecule `C=CCn1c(=O)c2cnc(Nc3ccc(N4CCN(C)CC4)cc3)nc2n1-c1cccc(C(C)(C)O)n1` + Cc1cnc(CNC(=O)c2c(=O)c3ccc(N4CCCN(C)CC4)nc3n3c2sc2ccccc23)cn1 has a viability, T/C of 6.1%.
For `CC(C)(O)C1CCC(Nc2ccc3ncc(-c4cccc(C(F)(F)F)c4)n3n2)CC1` (configuration not stated) + Cc1cnc(CNC(=O)c2c(=O)c3ccc(N4CCCN(C)CC4)nc3n3c2sc2ccccc23)cn1, the viability, T/C was 32.3%.
For `CCCS(=O)(=O)Nc1ccc(F)c(C(=O)c2c[nH]c3ncc(-c4ccc(Cl)cc4)cc23)c1F` + Cc1cnc(CNC(=O)c2c(=O)c3ccc(N4CCCN(C)CC4)nc3n3c2sc2ccccc23)cn1, the viability, T/C was 28.3%.
For `O=C(NO)c1cnc(N2CCN(S(=O)(=O)c3ccc4ccccc4c3)CC2)nc1` + Cc1cnc(CNC(=O)c2c(=O)c3ccc(N4CCCN(C)CC4)nc3n3c2sc2ccccc23)cn1, the viability, T/C was 0.12%.

Same assay, conditions: second compound 0.0316 µM; first compound 3.16 µM; stronger effect = lower value
`C#Cc1c(F)ccc2cc(O)cc(-c3ncc4c(N5CC6CCC(C5)N6)nc(OCC56CCCN5CC(F)C6)nc4c3F)c12` (configuration not stated) + Cc1cnc(CNC(=O)c2c(=O)c3ccc(N4CCCN(C)CC4)nc3n3c2sc2ccccc23)cn1 showed a viability, T/C of 91.2%.

Reference: PubChem BioAssay AID2060503 (Molecular Pharmacology Branch, DTP, NCI, 2025)
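Further: spheroids exposed to agents for 7 days before readout.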
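Wherever viability, T/C is given: percent viability relative to DMSO vehicle control taken as 100%.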
